Experimental data as given in patent US20220348592A1, “FUSED HETEROCYCLIC DERIVATIVES” (Janssen Sciences Ireland Unlimited Company, priority 2019, published 2022).

What was measured:
[1] = system: HBV; experiment: HBV replication inhibition assay (BDNA assay) in HepG2.2.15 cells; format: cell-based; conditions: Hepatitis B virus, HepG2.2.15, 144 h, 6 days treatment, encapsidated HBV DNA in supernatant, BDNA QuantiGene assay
Protocol: HBV replication inhibition by the disclosed compounds were determined in cells infected or transfected with HBV or cells with stably integrated HBV, such as HepG2.2.15 cells (Sells et al. 1987). In this example, HepG2.2.15 cells were maintained in cell culture medium containing 10% fetal bovine serum (FBS), Geneticin, L-glutamine, penicillin and streptomycin. HepG2.2.15 cells were seeded in 96-well plates at a density of 40,000 cells/well and were treated with serially diluted compounds at a final DMSO concentration of 0.5% either alone or in combination by adding drugs in a checker box format. Cells were incubated with compounds for three days, after which medium was removed and fresh medium containing compounds was added to cells and incubated for another three days. At day 6, supernatant was removed and treated with DNase at 37° C. for 60 minutes, followed by enzyme inactivation at 75° C. for 15 minutes. […] HBV DNA was denatured by addition of 0.2 M NaOH and detected using a branched DNA (BDNA) QuantiGene assay kit according to manufacturer recommendation (Affymetrix). HBV DNA levels were also quantified using qPCR, based on amplification of encapsidated HBV DNA extraction with QuickExtraction Solution (Epicentre Biotechnologies) and amplification of HBV DNA using HBV specific PCR probes that can hybridize to HBV DNA and a fluorescently labeled probe for quantitation. In addition, cell viability of HepG2.2.15 cells incubated with test compounds alone or in combination was determined by using CellTitre-Glo reagent according to the manufacturer protocol (Promega). The mean background signal from wells containing only culture medium was subtracted from all other samples, and percent inhibition at each compound concentration was calculated by normalizing to signals from HepG2.2.15 cells treated with 0.5% DMSO using equation E1. […]
where DMSOave is the mean signal calculated from the wells that were treated with DMSO control (0% inhibition control) and Xi is the signal measured from the individual wells. […]

[2] = system: HBV; experiment: Anti-HBV activity: intracellular HBV DNA by real-time PCR in HepG2.117 cell line; format: cell-based, Hepatitis B virus; conditions: HepG2.117 cells, 3 days of treatment, intracellular HBV DNA by real-time PCR, mean value, read-out: HBV-AVE-HepG2.117 EC50 (μM, mean value)
Outline: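 HepG2.117 cells, a Tet-off inducible HBV-producing line, induced to replicate HBV and then treated with serially diluted compound. After 3 days, intracellular HBV DNA quantified by real-time PCR with HBV-specific primers and probe.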

[3] = system: HepG2.117 cells; experiment: Cytotoxicity in HepG2.117 cells, ATPlite Luminescence Assay; format: cell-based, human; conditions: incubated for 3 days, mean value, read-out: TOX-HepG2.117 CC50 (μM, mean value)
Protocol: (§1) Cytotoxicity of the compounds was tested using HepG2 or HepG2.117 cells, incubated for 3 days in the presence of compounds. The viability of the cells was assessed using the PERKIN ELMER ATPlite Luminescence Assay System.”

[4] = as above; format: cell-based, human; conditions: human, incubated for 3 days, mean value, read-out: TOX-HepG2.117 CC50 (μM, mean value)
Protocol: as §1

SMILES | EC50 ([2]; Hepatitis B virus, 72 h) [µM] | CC50 at 3 days [4] [µM] | other results
C[C@@H]1Cc2nn3c(c2CN1C(=O)Nc1ccc(F)c(C#N)c1)C(=O)N(C)C[C@H](c1cc[nH]n1)C3 (relative stereo) [Example 7a] |  |  | EC50 [1]: 37 nM
C[C@@H]1Cc2nn3c(c2CN1C(=O)Nc1ccc(F)c(C#N)c1)C(=O)N(C)CC(c1cc[nH]n1)C3 (single isomer, unassigned) [Example 9a, (3R,8R*)—N-(3-Cyano-4-fluorophenyl)-3,10-dimethyl-11-oxo-8-(1H-pyrazol-3-yl)-3,4,8,9,10,11-hexahydro-1H-pyrido[4′,3′:3,4]pyrazolo[1,5-a][1,4]diazepine-2(7H)-carboxamide] |  |  | EC50 [1]: 260 nM
C[C@@H]1Cc2nn3c(c2CN1C(=O)c1ccc(Cl)c(Cl)c1)C(=O)N(C)OC(CF)C3 (stereo in doubt) [Compound 47, (4*R,9R)-10-(3,4-Dichlorobenzoyl)-4-(fluoromethyl)-2,9-dimethyl-4,5,8,9,10,11-hexahydro-pyrido[4′,3′:3,4]pyrazolo[5,1-d][1,2,5]oxadiazepin-1(2H)-one] |  |  | EC50 [2]: 0.249 µM; CC50 [3]: 3.63 µM
CC(C)N1CCn2nc3c(c2C1=O)CN(C(=O)c1ccc(Cl)c(Cl)c1)CC3 [Compound 2, 2-(3,4-Dichlorobenzoyl)-9-(propan-2-yl)-1,2,3,4,8,9-hexahydropyrido[4′,3′:3,4]pyrazolo[1,5-a]-pyrazin-10(7H)-one] | 1.15 | > 50 | melting point: 190 °C
O=C1NCCCn2nc3c(c21)CN(C(=O)c1ccc(Cl)c(Cl)c1)CC3 [Compound 33, 2-(3,4-Dichlorobenzoyl)-1,2,3,4,7,8,9,10-octahydro-11H-pyrido[4′,3′:3,4]pyrazolo[1,5-a][1,4]-diazepin-11-one] | 9.61 | > 50 | melting point: 237 °C
CN1CC(c2ccn(C)n2)Cn2nc3c(c2C1=O)CN(C(=O)Nc1ccc(F)c(C#N)c1)CC3 (stereo not drawn) [Example 5a, N-(3-Cyano-4-fluorophenyl)-10-methyl-8-(1-methyl-1H-pyrazol-3-yl)-11-oxo-3,4,8,9,10,11-hexahydro-1H-pyrido[4′,3′:3,4]pyrazolo[1,5-a][1,4]diazepine-2(7H)-carboxamide] |  |  | EC50 [1]: 160 nM
Cc1nc(C)c(CN2CCn3nc4c(c3C2=O)CN(C(=O)c2ccc(Cl)c(Cl)c2)[C@H](C)C4)s1 [Example C234] | 0.036 | > 50 | 
C[C@@H]1Cc2nn3c(c2CN1C(=O)c1ccc(Cl)c(Cl)c1)C(=O)N(Cc1nc(C2CC2)nn1C)CC3 [Example C235] | 1.93 | > 50 | 
Cc1conc1CN1CCn2nc3c(c2C1=O)CN(C(=O)c1ccc(Cl)c(Cl)c1)[C@H](C)C3 [Example C236] | 0.325 | > 51 | 
C[C@@H]1Cc2nn3c(c2CN1C(=O)c1ccc(Cl)c(Cl)c1)C(=O)N(Cc1ccc(C(F)(F)F)cn1)CC3 [Example C237] | 0.107 | 18.8 | 
C[C@@H]1Cc2nn3c(c2CN1C(=O)c1ccc(Cl)c(Cl)c1)C(=O)N(Cc1ccc(C#N)c(F)c1)CC3 [Example C238] | 0.029 | 39.9 | 
C[C@@H]1Cc2nn3c(c2CN1C(=O)c1ccc(Cl)c(Cl)c1)C(=O)N(Cc1cn(C2CC2)nn1)CC3 [Example C239] | 0.154 | > 50 | 
C[C@@H]1Cc2nn3c(c2CN1C(=O)c1ccc(Cl)c(Cl)c1)C(=O)N(Cc1cnc(Cl)c(F)c1)CC3 [Example C240] | 0.017 | 35.2 | 
Cc1nocc1CN1CCn2nc3c(c2C1=O)CN(C(=O)c1ccc(Cl)c(Cl)c1)[C@H](C)C3 [Example C241] | 0.19 | > 50 | 
C[C@@H]1Cc2nn3c(c2CN1C(=O)c1ccc(Cl)c(Cl)c1)C(=O)N(Cc1nccn1C)CC3 [Example C242] | 0.589 | > 50 | 
CCOc1cc(CN2CCn3nc4c(c3C2=O)CN(C(=O)c2ccc(Cl)c(Cl)c2)[C@H](C)C4)nc2nc(C(F)(F)F)nn12 [Example C243] | > 2.5 | > 50 | 
CC(c1ccccc1F)N1CCn2nc3c(c2C1=O)CN(C(=O)c1ccc(Cl)c(Cl)c1)[C@H](C)C3 (stereo partly drawn) [Example C244] | 0.048 | 24.5 | 
Cc1nnc(C(C)N2CCn3nc4c(c3C2=O)CN(C(=O)c2ccc(Cl)c(Cl)c2)[C@H](C)C4)s1 (stereo partly drawn) [Example C245] | 0.072 | > 50 | 
CC(c1cnccn1)N1CCn2nc3c(c2C1=O)CN(C(=O)c1ccc(Cl)c(Cl)c1)[C@H](C)C3 (stereo partly drawn) [Example C246] | 0.171 | > 50 | 
CC(c1nnnn1C)N1CCn2nc3c(c2C1=O)CN(C(=O)c1ccc(Cl)c(Cl)c1)[C@H](C)C3 (stereo partly drawn) [Example C247] | > 2.5 | > 50 | 
CC(c1c(F)cccc1F)N1CCn2nc3c(c2C1=O)CN(C(=O)c1ccc(Cl)c(Cl)c1)[C@H](C)C3 (stereo partly drawn) [Example C248] | 0.013 | 25 | 
CC(c1nncn1C)N1CCn2nc3c(c2C1=O)CN(C(=O)c1ccc(Cl)c(Cl)c1)[C@H](C)C3 (stereo partly drawn) [Example C249] | > 2.5 | > 50 | 
CC(c1ccncc1)N1CCn2nc3c(c2C1=O)CN(C(=O)c1ccc(Cl)c(Cl)c1)[C@H](C)C3 (stereo partly drawn) [Example C250] | 0.033 | > 12.5 | 
